Data from PubChem BioAssay (NCI).
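Tested at 5 concentrations; 48 h exposure; 96-well plates; endpoints linearly interpolated, else capped at highest concentration. The concentration for 50% growth inhibition is given as GI50. TGI: total growth inhibition.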

Tests used:
Assay in all cases: NCI-60 cell line screen, 48 h
KM12 colon = tested on: KM12 colon
OVCAR-8 ovarian = tested on: OVCAR-8 ovarian
SK-MEL-5 melanoma = tested on: SK-MEL-5 melanoma
SN12C renal = tested on: SN12C renal
SNB-19 CNS = tested on: SNB-19 CNS
UACC-257 melanoma = tested on: UACC-257 melanoma
UO-31 renal = tested on: UO-31 renal
NCI-H460 lung = tested on: NCI-H460 lung

O=[N+]([O-])c1cc([N+](=O)[O-])c(C(Cl)C(Cl)c2ccccc2)cc1C(Cl)C(Cl)c1ccccc1 (configuration not stated)
TGI (KM12 colon): 3.76 µM | TGI (OVCAR-8 ovarian): 4.62 µM | TGI (SK-MEL-5 melanoma): 3.29 µM | TGI (SN12C renal): 3.49 µM | TGI (SNB-19 CNS): 6.53 µM | TGI (UACC-257 melanoma): 4.09 µM | TGI (UO-31 renal): 2.93 µM

COc1cc2c3c(c1OCc1ccccc1)NCCC3NCC2 (configuration not stated)
TGI (KM12 colon): > 100 µM | TGI (NCI-H460 lung): > 100 µM | TGI (OVCAR-8 ovarian): > 100 µM | TGI (SK-MEL-5 melanoma): > 100 µM | TGI (SN12C renal): > 100 µM | TGI (SNB-19 CNS): > 100 µM | TGI (UACC-257 melanoma): > 100 µM | TGI (UO-31 renal): > 100 µM

Cc1ccc(S(=O)(=O)NC(=O)C#CCOC2CCCCO2)cc1 (configuration not stated)
TGI (NCI-H460 lung): > 100 µM | TGI (OVCAR-8 ovarian): > 100 µM | TGI (SK-MEL-5 melanoma): > 100 µM | TGI (SN12C renal): > 100 µM | TGI (SNB-19 CNS): > 100 µM | TGI (UACC-257 melanoma): > 100 µM | TGI (UO-31 renal): > 100 µM

N#CC(C(=O)C(=O)Nc1ccc(Cl)c(Cl)c1)c1ccc(Cl)cc1 (configuration not stated)
TGI (KM12 colon): > 100 µM | TGI (NCI-H460 lung): 96.7 µM | TGI (OVCAR-8 ovarian): > 100 µM | TGI (SK-MEL-5 melanoma): > 100 µM | TGI (SN12C renal): > 100 µM | TGI (SNB-19 CNS): > 100 µM | TGI (UACC-257 melanoma): > 100 µM | TGI (UO-31 renal): > 100 µM

COC(=O)C1=C(C)N(NC(=O)c2cccc(Cl)c2)C(C)(O)C12CCOC2=O (configuration not stated)
TGI (KM12 colon): > 100 µM | TGI (NCI-H460 lung): > 100 µM | TGI (OVCAR-8 ovarian): > 100 µM | TGI (SK-MEL-5 melanoma): > 100 µM | TGI (SN12C renal): > 100 µM | TGI (SNB-19 CNS): > 100 µM | TGI (UACC-257 melanoma): > 100 µM | TGI (UO-31 renal): > 100 µM

CCOC(=O)NN(C(=O)OCC)C(C(=O)c1ccc(Cl)cc1)=C1NCCN1
TGI (KM12 colon): > 100 µM | TGI (NCI-H460 lung): > 100 µM | TGI (OVCAR-8 ovarian): > 100 µM | TGI (SK-MEL-5 melanoma): > 100 µM | TGI (SN12C renal): > 100 µM | TGI (SNB-19 CNS): > 100 µM | TGI (UACC-257 melanoma): > 100 µM | TGI (UO-31 renal): > 100 µM

CCOC(=O)/C(=C/c1ccc(Cl)cc1)N(CC)CC
TGI (KM12 colon): > 100 µM | TGI (NCI-H460 lung): > 100 µM | TGI (OVCAR-8 ovarian): > 100 µM | TGI (SK-MEL-5 melanoma): > 100 µM | TGI (SN12C renal): > 100 µM | TGI (UACC-257 melanoma): > 100 µM | TGI (UO-31 renal): > 100 µM

O=C(NCCCCCCNC(=O)NC1OCC(O)C(O)C1O)NC1OCC(O)C(O)C1O (configuration not stated)
TGI (KM12 colon): > 100 µM | TGI (NCI-H460 lung): > 100 µM | TGI (OVCAR-8 ovarian): > 100 µM | TGI (SK-MEL-5 melanoma): > 100 µM | TGI (SN12C renal): > 100 µM

CC(=O)OCc1c(C)c2ccccc2n1C(C)=O
TGI (KM12 colon): > 100 µM | TGI (OVCAR-8 ovarian): > 100 µM | TGI (SK-MEL-5 melanoma): > 100 µM | TGI (SN12C renal): > 100 µM | TGI (SNB-19 CNS): > 100 µM | TGI (UACC-257 melanoma): 89.8 µM | TGI (UO-31 renal): > 100 µM

CC1OC(n2cc(I)c(=O)[nH]c2=O)C=CC1=O (configuration not stated)
TGI (KM12 colon): 25.8 µM | TGI (NCI-H460 lung): 35.1 µM | TGI (OVCAR-8 ovarian): 30.8 µM | TGI (SK-MEL-5 melanoma): 29.5 µM | TGI (SN12C renal): 33.3 µM | TGI (SNB-19 CNS): 32.1 µM | TGI (UACC-257 melanoma): 27.8 µM | TGI (UO-31 renal): 30.5 µM

C[CH2][Sn]([Cl])([CH2]C)[CH2]C
GI50 (KM12 colon): 1.08 µM | TGI (KM12 colon): 12.8 µM | GI50 (NCI-H460 lung): 1.67 µM | TGI (NCI-H460 lung): 5.44 µM | GI50 (OVCAR-8 ovarian): 1.69 µM | TGI (OVCAR-8 ovarian): 4.35 µM | GI50 (SK-MEL-5 melanoma): 0.761 µM | TGI (SK-MEL-5 melanoma): 2.26 µM | GI50 (SN12C renal): 0.841 µM | TGI (SN12C renal): 3.47 µM | GI50 (SNB-19 CNS): 1.97 µM | TGI (SNB-19 CNS): 10.6 µM | GI50 (UACC-257 melanoma): 1 µM | TGI (UACC-257 melanoma): 4.43 µM | GI50 (UO-31 renal): 1.65 µM | TGI (UO-31 renal): 4.05 µM

NC(=O)OCC(COc1ccc(Cl)cc1)OC(=O)c1cc([N+](=O)[O-])cc([N+](=O)[O-])c1 (configuration not stated)
TGI (KM12 colon): > 100 µM | TGI (NCI-H460 lung): > 100 µM | TGI (OVCAR-8 ovarian): > 100 µM | TGI (SK-MEL-5 melanoma): > 100 µM | TGI (SN12C renal): > 100 µM | TGI (SNB-19 CNS): > 100 µM | TGI (UACC-257 melanoma): > 100 µM | TGI (UO-31 renal): > 100 µM

O=C1C2C3CCC(C2C(=O)N1CO)C1C2C(=O)N(CO)C(=O)C2C31 (configuration not stated)
TGI (KM12 colon): > 100 µM | TGI (NCI-H460 lung): > 54.5 µM | TGI (OVCAR-8 ovarian): > 67.6 µM | TGI (SK-MEL-5 melanoma): 98.9 µM | TGI (SN12C renal): > 69.2 µM | TGI (SNB-19 CNS): > 100 µM | TGI (UACC-257 melanoma): > 100 µM | TGI (UO-31 renal): > 100 µM

CC1=C2[C@@H](c3ccccc3)C3C=CC2(c2ccccc23)N(C(=O)Nc2cccc3ccccc23)C1=O (some centres not stated)
TGI (KM12 colon): > 100 µM | TGI (OVCAR-8 ovarian): > 100 µM | TGI (SK-MEL-5 melanoma): > 100 µM | TGI (SN12C renal): > 100 µM | TGI (SNB-19 CNS): > 100 µM | TGI (UACC-257 melanoma): > 100 µM | TGI (UO-31 renal): > 100 µM

O=c1[nH]c(=O)n(C2OC(CO)C(O)C2O)cc1OCc1ccccc1 (configuration not stated)
TGI (KM12 colon): > 100 µM | TGI (NCI-H460 lung): > 100 µM | TGI (OVCAR-8 ovarian): > 100 µM | TGI (SK-MEL-5 melanoma): > 100 µM | TGI (SN12C renal): > 100 µM | TGI (SNB-19 CNS): > 100 µM | TGI (UACC-257 melanoma): > 100 µM | TGI (UO-31 renal): > 100 µM

CN/N=C(/CC(=O)c1sc(-n2nc(-c3ccccc3)cc2-c2ccccc2)nc1C)C(=O)Nc1ccc(Cl)c(Cl)c1
TGI (KM12 colon): > 100 µM | TGI (NCI-H460 lung): > 100 µM | TGI (OVCAR-8 ovarian): > 100 µM | TGI (SK-MEL-5 melanoma): > 100 µM | TGI (SN12C renal): > 100 µM | TGI (SNB-19 CNS): > 100 µM | TGI (UACC-257 melanoma): > 100 µM | TGI (UO-31 renal): > 100 µM

COc1cccc(N2C(=O)[C@H]3[C@H]4CC(C(C)(C)C)CC[C@H]4c4c([nH]c5ccccc45)[C@H]3C2=O)c1 (some centres not stated)
TGI (KM12 colon): > 100 µM | TGI (OVCAR-8 ovarian): 29.7 µM | TGI (SK-MEL-5 melanoma): 35.6 µM | TGI (SN12C renal): 26.5 µM | TGI (SNB-19 CNS): 33.9 µM | TGI (UACC-257 melanoma): 48.6 µM | TGI (UO-31 renal): 35.5 µM

CO[C@]12CCC(=O)N1C=Cc1c2[nH]c2ccccc12
TGI (NCI-H460 lung): > 100 µM | TGI (OVCAR-8 ovarian): > 100 µM | TGI (SK-MEL-5 melanoma): > 100 µM | TGI (SNB-19 CNS): > 100 µM | TGI (UACC-257 melanoma): > 100 µM | TGI (UO-31 renal): > 100 µM

COc1ccc2c([nH]c3cc(O)c(C)cc32)c1CC=C(C)C
GI50 (NCI-H460 lung): 5.56 µM | TGI (NCI-H460 lung): 14.1 µM | TGI (OVCAR-8 ovarian): 10.4 µM | GI50 (SK-MEL-5 melanoma): 8.04 µM | TGI (SK-MEL-5 melanoma): > 25 µM | TGI (SN12C renal): 10.8 µM | TGI (SNB-19 CNS): > 25 µM | GI50 (UO-31 renal): 14.3 µM | TGI (UO-31 renal): > 25 µM

CN1CCc2cc(O)c3cc2C1Cc1ccc(cc1)Oc1cc(ccc1O)CC1c2c(cc4c(c2O3)OCO4)CCN1C (configuration not stated)
TGI (KM12 colon): > 100 µM | TGI (NCI-H460 lung): > 100 µM | TGI (OVCAR-8 ovarian): 48.9 µM | TGI (SK-MEL-5 melanoma): 33.1 µM | TGI (SN12C renal): > 100 µM | TGI (SNB-19 CNS): > 100 µM | TGI (UO-31 renal): 9.46 µM
